Data as given in patent publication US20130028955A1, “SUSTAINED RELEASE ORAL MATRIX AND METHODS OF MAKING THEREOF” (priority 2011, published 2013).
Counter-ions that a name gives are not always drawn.

Assay: Dissolution, USP basket apparatus 1, simulated intestinal fluid pH 6.8
Assay type: physicochemical
Settings: for drug release 0.5 h / drug release 1 h / drug release 2 h / drug release 4 h / drug release 8 h / drug release 12 h / drug release 24 h: Table 7, Example VII combination tablet; for drug release 0 h: Table 7, Example VII tablet: 20% silicone PSA, 8.7% tramadol HCl, 71.7% acetaminophen
Procedure: The release rate of these formulations were carried out using USP dissolution basket apparatus 1 (Vankel, Inc) using about 100 rpm stirring speed at about 37 C in about 900 ml of the dissolution medium. The dissolution medium used was simulated intestinal fluid with a pH of about 6.8. At predetermined time intervals, 1 ml of sample was withdrawn and was analyzed to determine acetaminophen concentration. Concentration of acetaminophen in the dissolution medium was determined using a HPLC method. A C8 column was used using mobile phase of 65% methanol and 35% water. Flow rate was 1 ml/min and the UV detection wavelength was 254 nm. The results are reported as average of six tablets. […] Total weight of each tablet was 500 mg. The diameters of the tablets were 13 mm.

| Structure (SMILES) | drug release 0.5 h | drug release 1 h | drug release 2 h | drug release 4 h | drug release 8 h | drug release 12 h | drug release 24 h | drug release 0 h |
| --- | --- | --- | --- | --- | --- | --- | --- | --- |
| CC(=O)Nc1ccc(O)cc1 [APAP, acetaminophen] | 13.5 | 22.6 | 31.9 | 44.8 | 61.1 | 74.3 | 86.0 | 0.0 |
| COc1cccc(C2(O)CCCCC2CN(C)C)c1 (stereo not shown) [Tramadol HCl, Tramadol hydrochloride] | 15.8 | 23.2 | 32.1 | 43.4 | 56.8 | 68.3 | 89.4 | 0.0 |
